EC50 and Emax data for 44 compounds are collected here from US9926315B2, “Triazolopyridine compounds and methods for the treatment of cystic fibrosis” (Flatley Discovery Lab, LLC, priority 2014, dated 2018).

This experiment has as its target T1, human ΔF508-CFTR (Homo sapiens, UniProt P13569, DEL508-508).
T1 construct: expressed in transfected cells
The experiment is described as follows: CFTR-YFP High Throughput Assay (HTS YFP flux assay, corrector / potentiator protocols). It counts as cell-based. The settings on record: FRT cells stably expressing human ΔF508-CFTR and YFP-H148Q/I152L; for Emax: normalized to positive control, read-out: Emax (% Efficacy, EMax normalized to the positive control). The protocol: Assays for Detecting and Measuring the Effect of Compounds on dF508-CFTR Channels CFRT-YFP High Throughput Assay: Corrector Assay:
The following protocol is designed to selectively screen small molecule compounds for F508del CFTR corrector activities in the HTS YFP flux assay. In this protocol, the cells are incubated with testing compounds for 24 hours, washed with PBS, stimulated with forskolin and a standard potentiator, and read on a 384-well HTS plate reader, such as the Hamamatsu FDDD-6000.
YFP fluorescence intensity is acquired at high speed before and after iodide buffer is injected to the assay cells. Iodide enters the cells via active CFTR channels in the plasma membrane, and quenches the YFP fluorescence. The rate of fluorescence quenching is proportionally related to the total CFTR activities in the cell membrane. dF508-CFTR corrector accelerates YFP quenching by increasing the number of CFTR molecules in the testing cell plasma membrane.
This method was initially developed for bench top plate readers (Galietta, 2001), and was adapted to the HTS format (Sui, 2010).
Fisher Rat Thyroid (FRT) cells stably expressing both human ΔF508-CFTR and a halide-sensitive yellow fluorescent protein (YFP-H148Q/I152L 25, 22) (Galietta, 2001) were cultured on plastic surface in Coon's modified Ham's F12 medium supplemented with FBS 10%, L-glutamine 2 mM, penicillin 100 U/mL, and streptomycin 100 μg/mL. G418 (0.75-1.0 mg/mL) and zeocin (3.2 μg/mL) were used for selection of FRT cells expressing ΔF508-CFTR and YFP. For primary screening, FRT cells were plated into 384-well black wall, transparent bottom microtiter plates (Costar; Corning Inc.) at a cell density of 20, 000-40, 000 per well. Test compound was applied to the cells at varying concentrations ranging from 2 nM-[…] in either a 2-fold or 3-fold dilution series. Cells were incubated in a cell culture incubator at 37° C. with 5% CO2 for 24-26 h. Assay plates were washed with DPBS media (Thermo, cat#SH30028.02) to remove unbound cells and compound. Stimulation media (25 μL) containing 20 μM Forskolin & 30 μM P3 [6-(Ethyl-phenyl-sulfonyl)-4-oxo-1, 4-dihydro-quinoline-3-carboxylic acid 2-methoxy-benzylamide] in Hams F-12 coon's modified media was added to the plate wells and incubated at room temperature for 60-120 min. 25 μL of HEPES-PBS-I buffer (10 mM HEPES, 1 mM MgCl2, 3 mM KCl, 1 mM CaCl2, 150 mM NaI) was then added and fluorescence quench curves (Excitation 500 nm/Emission 540 nm; exposure 136 ms) were immediately recorded on an FDSS-6000 plate reader (Hamamatsu). Quench rates were derived from least squares fitting of the data (Sui, 2010).
The following protocol is designed to selectively screen small molecule compounds for F508del CFTR potentiator activities in the HTS YFP flux assay. In this protocol, the cells are incubated at 27° C. for 24 hours with homogeneously boosted dF508-CFTR expression in the cell membrane by the low temperature, washed with PBS, stimulated with forskolin, and read on a 384-well HTS plate reader, such as the Hamamatsu […].
YFP fluorescence intensity is acquired at high speed before and after iodide buffer is injected to the assay cells. Iodide enters the cells via active CFTR channels in the plasma membrane, and quenches the YFP fluorescence. The rate of fluorescence quenching is proportionally related to the total CFTR activities in the cell membrane. dF508del-CFTR potentiators accelerate YFP quenching by increasing CFTR activities in the testing cell plasma membrane.
Fisher Rat Thyroid (FRT) cells stably expressing both human ΔF508-CFTR and a halide-sensitive yellow fluorescent protein (YFP-H148Q/I152L 25, 22) (Galietta, 2001) were cultured on plastic surface in Coon's modified Ham's F12 medium supplemented with FBS 10%, L-glutamine 2 mM, penicillin 100 U/mL, and streptomycin 100 μg/mL. G418 (0.75-1.0 mg/mL) and zeocin (3.2 μg/mL) were used for selection of FRT cells expressing ΔF508-CFTR and YFP. […]

Molecules are shown by their SMILES.

T1 sequence (P13569 with tags, fused parts or gaps DEL508-508): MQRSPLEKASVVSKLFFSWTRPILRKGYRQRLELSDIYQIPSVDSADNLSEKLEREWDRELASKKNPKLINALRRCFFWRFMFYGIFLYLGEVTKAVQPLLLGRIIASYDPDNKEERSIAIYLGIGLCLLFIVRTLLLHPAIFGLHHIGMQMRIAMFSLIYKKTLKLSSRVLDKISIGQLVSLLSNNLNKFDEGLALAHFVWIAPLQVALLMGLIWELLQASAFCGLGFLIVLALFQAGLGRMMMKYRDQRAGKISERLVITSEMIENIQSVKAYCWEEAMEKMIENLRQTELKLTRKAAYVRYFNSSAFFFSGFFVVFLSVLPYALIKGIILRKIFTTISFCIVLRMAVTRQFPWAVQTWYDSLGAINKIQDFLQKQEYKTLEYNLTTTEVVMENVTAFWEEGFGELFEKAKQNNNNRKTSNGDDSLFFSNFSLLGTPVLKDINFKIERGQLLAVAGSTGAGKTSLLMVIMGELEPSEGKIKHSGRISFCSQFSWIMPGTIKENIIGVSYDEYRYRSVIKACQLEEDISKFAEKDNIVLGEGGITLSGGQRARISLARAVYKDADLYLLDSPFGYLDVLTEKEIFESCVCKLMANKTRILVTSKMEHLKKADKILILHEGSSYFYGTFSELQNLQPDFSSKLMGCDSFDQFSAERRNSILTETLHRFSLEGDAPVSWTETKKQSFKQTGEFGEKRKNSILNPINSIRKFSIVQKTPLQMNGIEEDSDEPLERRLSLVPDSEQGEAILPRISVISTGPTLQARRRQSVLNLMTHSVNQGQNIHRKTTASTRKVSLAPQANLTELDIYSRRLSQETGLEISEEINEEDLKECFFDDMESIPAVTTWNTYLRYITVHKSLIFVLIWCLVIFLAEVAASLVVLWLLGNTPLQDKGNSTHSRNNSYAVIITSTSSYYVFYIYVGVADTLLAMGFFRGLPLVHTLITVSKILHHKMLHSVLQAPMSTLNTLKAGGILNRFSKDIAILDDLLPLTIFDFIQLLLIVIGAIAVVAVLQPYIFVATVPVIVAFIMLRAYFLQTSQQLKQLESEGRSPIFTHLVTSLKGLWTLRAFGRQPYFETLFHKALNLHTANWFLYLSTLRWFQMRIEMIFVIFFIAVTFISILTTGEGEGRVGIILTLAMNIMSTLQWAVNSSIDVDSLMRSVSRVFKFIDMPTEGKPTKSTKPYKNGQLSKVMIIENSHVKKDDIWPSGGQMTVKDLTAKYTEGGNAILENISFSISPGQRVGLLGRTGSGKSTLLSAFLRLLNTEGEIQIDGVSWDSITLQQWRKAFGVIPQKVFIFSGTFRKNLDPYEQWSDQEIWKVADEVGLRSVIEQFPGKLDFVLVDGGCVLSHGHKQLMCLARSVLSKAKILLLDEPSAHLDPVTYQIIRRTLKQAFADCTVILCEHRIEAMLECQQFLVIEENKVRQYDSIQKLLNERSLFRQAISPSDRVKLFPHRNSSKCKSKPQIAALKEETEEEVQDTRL

`CCN(CC)S(=O)(=O)c1ccc2nnc(NCc3ccccc3)n2c1` [Example 1, 3-(Benzylamino)-N,N-diethyl-[1,2,4]triazolo[4,3-a]pyridine-6-sulfonamide]: the EC50 is < 1000 nM and the Emax is > 80%.
For the compound `CCN(CC)S(=O)(=O)c1ccc2nnc(NC3CCCc4ccccc43)n2c1` (stereo not shown) [Example 2], the EC50 is < 1000 nM and the Emax was > 80%.
The corresponding values for `CCN(CC)S(=O)(=O)c1ccc2nnc(N(C)Cc3ccccc3)n2c1` [Example 3] are < 1000 nM and 40 to 80%.
Consider `CCN(CC)S(=O)(=O)c1ccc2nnc(NC3Cc4ccccc4C3)n2c1` [Example 4], for which the EC50 was < 1000 nM and the Emax was > 80%.
On to `CCN(CC)S(=O)(=O)c1ccc2nnc(NCc3ccc(-c4ccccc4)cc3)n2c1` [Example 5], for which the EC50 was < 1000 nM and the Emax was > 80%.
The corresponding values for `CCN(CC)S(=O)(=O)c1ccc2nnc(N3CCN(Cc4ccccc4)CC3)n2c1` [Example 6] are 1000 to 10000 nM and 40 to 80%.
The corresponding values for `CCN(CC)S(=O)(=O)c1ccc2nnc(NCC(C)(C)C)n2c1` [Example 7] are < 1000 nM and 40 to 80%.
Taken in the same sequence, the figures for `CCN(CC)S(=O)(=O)c1ccc2nnc(NCC3CC3)n2c1` [Example 8] were < 1000 nM and > 80%.
As for `CCN(CC)S(=O)(=O)c1ccc2nnc(NCc3ccc(C)cc3)n2c1` [Example 9], the EC50 was < 1000 nM and the Emax was > 80%.
As to `CCN(CC)S(=O)(=O)c1ccc2nnc(NCc3cccc(C)c3)n2c1` [Example 10], the EC50 is < 1000 nM and the Emax is > 80%.
The corresponding values for `CCN(CC)S(=O)(=O)c1ccc2nnc(NC3CCCCC3)n2c1` [Example 11] are < 1000 nM and > 80%.
Regarding `CCN(CC)S(=O)(=O)c1ccc2nnc(NC(=O)c3ccccc3)n2c1` [Example 12], the EC50 is 1000 to 10000 nM and the Emax was in the range of 40 to 80%.
In the case of `CCN(CC)S(=O)(=O)c1ccc2nnc(NCc3ccccc3C)n2c1` [Example 13], the EC50 is < 1000 nM and the Emax was in the range of 40 to 80%.
`CCN(CC)S(=O)(=O)c1ccc2nnc(NCC3CCCO3)n2c1` (stereo not shown) [Example 14]: the concentration for a half-maximal effect (EC50) was > 10000 nM and the Emax lay within 40 to 80%.
`CCN(CC)S(=O)(=O)c1ccc2nnc(NCc3cccnc3)n2c1` [Example 15]: the EC50 is > 10000 nM and the Emax was 40 to 80%.
Taken in the same sequence, the figures for `CCN(CC)S(=O)(=O)c1ccc2nnc(NCc3ccc(OC)cc3)n2c1` [Example 16] were < 1000 nM and 40 to 80%.
Taken in the same sequence, the figures for `CCN(CC)S(=O)(=O)c1ccc2nnc(NCC(C)C)n2c1` [Example 17] were < 1000 nM and > 80%.
The corresponding values for `CCN(CC)S(=O)(=O)c1ccc2nnc(NCC(C)(C)O)n2c1` [Example 18] are 1000 to 10000 nM and 40 to 80%.
Regarding `CCN(CC)S(=O)(=O)c1ccc2nnc(NCCC(C)C)n2c1` [Example 19], the EC50 was < 1000 nM and the Emax was > 80%.
The corresponding values for `CCN(CC)S(=O)(=O)c1ccc2nnc(N[C@H](C)c3ccccc3)n2c1` [Example 20] are < 1000 nM and > 80%.
For `CCN(CC)S(=O)(=O)c1ccc2nnc(N[C@@H](C)c3ccccc3)n2c1` [Example 21], the EC50 was < 1000 nM and the Emax is > 80%.
The corresponding values for `CCN(CC)S(=O)(=O)c1ccc2nnc(NCC(=O)Nc3ccc(C)c(C)c3)n2c1` [Example 22] are < 1000 nM and 40 to 80%.
Regarding `CCN(CC)S(=O)(=O)c1ccc2nnc(NC[C@H]3CCCO3)n2c1` [Example 23], the EC50 was > 10000 nM and the Emax was > 80%.
On to `CCN(CC)S(=O)(=O)c1ccc2nnc(NCC(O)COC)n2c1` (stereo not shown) [Example 24], for which the EC50 fell in the range of 1000 to 10000 nM and the maximum response (Emax) was > 80%.
As for `CCN(CC)S(=O)(=O)c1ccc2nnc(NCCc3ccccc3)n2c1` [Example 25], the EC50 was < 1000 nM and the Emax was > 80%.
For `CCN(CC)S(=O)(=O)c1ccc2nnc(NC3CCCC3)n2c1` [Example 26], the EC50 is < 1000 nM and the Emax was > 80%.
Consider `CCN(CC)S(=O)(=O)c1ccc2nnc(NC(C)c3ccc(C)cc3)n2c1` (stereo not shown) [Example 27], for which the EC50 was < 1000 nM and the Emax was > 80%.
Taken in the same sequence, the figures for `CCN(CC)S(=O)(=O)c1ccc2nnc(NC(C)c3ccc(OC)cc3)n2c1` (stereo not shown) [Example 28] were < 1000 nM and > 80%.
For `CCC(Nc1nnc2ccc(S(=O)(=O)N(CC)CC)cn12)c1ccccc1` (stereo not shown) [Example 29], the EC50 was < 1000 nM and the Emax was > 80%.
In the case of `CCN(CC)S(=O)(=O)c1ccc2nnc(NC3CCc4ccccc43)n2c1` (stereo not shown) [Example 30], the EC50 is < 1000 nM and the Emax was > 80%.
For `CCN(CC)S(=O)(=O)c1ccc2nnc(NCC(C)(C)OC)n2c1` [Example 31], the EC50 was 1000 to 10000 nM and the Emax lay within 40 to 80%.
The corresponding values for `CCN(CC)S(=O)(=O)c1ccc2nnc(NC3CCc4ccccc4C3)n2c1` (stereo not shown) [Example 32] are 1000 to 10000 nM and 40 to 80%.
The corresponding values for `CCN(CC)S(=O)(=O)c1ccc2nnc(N[C@@H]3C[C@H]4CC[C@@H]3C4)n2c1` [Example 33] are < 1000 nM and > 80%.
`CCN(CC)S(=O)(=O)c1ccc2nnc(N[C@H](C)C3CCCCC3)n2c1` [Example 34]: the EC50 was < 1000 nM and the Emax was > 80%.
Taken in the same sequence, the figures for `CCN(CC)S(=O)(=O)c1ccc2nnc(N[C@H](C)c3ccc(C)cc3)n2c1` [Example 35] were < 1000 nM and > 80%.
Consider `CCN(CC)S(=O)(=O)c1ccc2nnc(NCc3ccc(OC(C)C)cc3)n2c1` [Example 36], for which the EC50 was < 1000 nM and the Emax was > 80%.
The corresponding values for `CCN(CC)S(=O)(=O)c1ccc2nnc(NCc3ccc(N(C)C)cc3)n2c1` [Example 37] are < 1000 nM and > 80%.
As to `CCN(CC)S(=O)(=O)c1ccc2nnc(N[C@@H](C)c3ccc(C)cc3)n2c1` [Example 38], the concentration giving a half-maximal response (EC50) is < 1000 nM and the Emax is > 80%.
The corresponding values for `CCN(CC)S(=O)(=O)c1ccc2nnc(NCc3ccc(C)c(C)c3)n2c1` [Example 39] are < 1000 nM and > 80%.
For the compound `CCN(CC)S(=O)(=O)c1ccc2nnc(NCc3ccc4c(c3)CCO4)n2c1` [Example 40], the EC50 was < 1000 nM and the Emax was > 80%.
Regarding `CCN(CC)S(=O)(=O)c1ccc2nnc(N[C@H](C)c3ccc(F)cc3)n2c1` [Example 41], the EC50 is < 1000 nM and the Emax was > 80%.
The corresponding values for `CCN(CC)S(=O)(=O)c1ccc2nnc(NC(C)CC(C)C)n2c1` (stereo not shown) [Example 42] are < 1000 nM and > 80%.
Taken in the same sequence, the figures for `CCN(CC)S(=O)(=O)c1ccc2nnc(NC(C)C(C)C)n2c1` (stereo not shown) [Example 43] were < 1000 nM and > 80%.
`CCN(CC)S(=O)(=O)c1ccc2nnc(NC3CCOc4ccccc43)n2c1` (stereo not shown) [Example 44]: the EC50 was < 1000 nM and the Emax was > 80%.

What is called EC50 is the concentration giving half of the maximal effect. Broadly, the Emax is the greatest response seen or fitted, relative to the assay's reference.
